Results on 18 compounds are retold here after US20050090505A1, “Methods of reducing risk of infection from pathogens” (priority 2003, published 2005).

Counter-ions that a name gives are not always drawn.

The target in this experiment is T1, airway epithelial sodium currents (sodium channel) (UniProt A0A8I3MKE6+A0A8I3Q679+Q95165).
T1 sequence (A0A8I3MKE6 1-646): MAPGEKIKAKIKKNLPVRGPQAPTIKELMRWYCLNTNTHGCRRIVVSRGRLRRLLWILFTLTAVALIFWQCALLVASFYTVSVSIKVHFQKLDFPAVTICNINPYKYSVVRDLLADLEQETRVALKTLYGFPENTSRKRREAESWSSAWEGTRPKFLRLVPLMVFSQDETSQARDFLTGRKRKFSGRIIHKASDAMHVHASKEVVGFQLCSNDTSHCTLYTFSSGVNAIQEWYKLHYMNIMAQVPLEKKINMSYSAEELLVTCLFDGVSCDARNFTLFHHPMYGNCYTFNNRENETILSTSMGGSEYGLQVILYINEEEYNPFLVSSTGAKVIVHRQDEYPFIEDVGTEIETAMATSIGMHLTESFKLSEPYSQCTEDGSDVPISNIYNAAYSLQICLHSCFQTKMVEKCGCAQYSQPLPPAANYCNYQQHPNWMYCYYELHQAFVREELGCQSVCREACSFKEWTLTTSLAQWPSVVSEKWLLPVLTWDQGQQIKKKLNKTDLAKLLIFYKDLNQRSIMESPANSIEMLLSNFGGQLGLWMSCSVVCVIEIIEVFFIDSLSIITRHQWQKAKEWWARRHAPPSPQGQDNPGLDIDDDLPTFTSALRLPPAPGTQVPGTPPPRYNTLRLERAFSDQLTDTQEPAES
T1 sequence (A0A8I3Q679 1-649): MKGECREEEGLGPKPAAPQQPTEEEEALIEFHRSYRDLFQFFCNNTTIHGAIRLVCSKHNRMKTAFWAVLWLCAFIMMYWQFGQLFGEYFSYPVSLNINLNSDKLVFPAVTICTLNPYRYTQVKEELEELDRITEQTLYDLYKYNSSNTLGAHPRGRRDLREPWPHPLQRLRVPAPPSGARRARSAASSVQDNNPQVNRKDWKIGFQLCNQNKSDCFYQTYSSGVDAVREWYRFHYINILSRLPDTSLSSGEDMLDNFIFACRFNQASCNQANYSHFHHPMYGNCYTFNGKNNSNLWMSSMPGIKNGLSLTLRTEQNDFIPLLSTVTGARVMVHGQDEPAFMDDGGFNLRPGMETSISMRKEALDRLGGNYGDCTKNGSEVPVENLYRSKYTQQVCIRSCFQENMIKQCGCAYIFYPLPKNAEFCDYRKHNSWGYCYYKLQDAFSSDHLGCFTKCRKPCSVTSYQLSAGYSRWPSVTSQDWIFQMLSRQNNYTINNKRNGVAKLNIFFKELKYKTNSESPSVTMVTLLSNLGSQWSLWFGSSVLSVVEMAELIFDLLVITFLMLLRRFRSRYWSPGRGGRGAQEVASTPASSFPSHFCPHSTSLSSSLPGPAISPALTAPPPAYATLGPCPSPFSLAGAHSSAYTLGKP
T1 sequence (Q95165 1-641): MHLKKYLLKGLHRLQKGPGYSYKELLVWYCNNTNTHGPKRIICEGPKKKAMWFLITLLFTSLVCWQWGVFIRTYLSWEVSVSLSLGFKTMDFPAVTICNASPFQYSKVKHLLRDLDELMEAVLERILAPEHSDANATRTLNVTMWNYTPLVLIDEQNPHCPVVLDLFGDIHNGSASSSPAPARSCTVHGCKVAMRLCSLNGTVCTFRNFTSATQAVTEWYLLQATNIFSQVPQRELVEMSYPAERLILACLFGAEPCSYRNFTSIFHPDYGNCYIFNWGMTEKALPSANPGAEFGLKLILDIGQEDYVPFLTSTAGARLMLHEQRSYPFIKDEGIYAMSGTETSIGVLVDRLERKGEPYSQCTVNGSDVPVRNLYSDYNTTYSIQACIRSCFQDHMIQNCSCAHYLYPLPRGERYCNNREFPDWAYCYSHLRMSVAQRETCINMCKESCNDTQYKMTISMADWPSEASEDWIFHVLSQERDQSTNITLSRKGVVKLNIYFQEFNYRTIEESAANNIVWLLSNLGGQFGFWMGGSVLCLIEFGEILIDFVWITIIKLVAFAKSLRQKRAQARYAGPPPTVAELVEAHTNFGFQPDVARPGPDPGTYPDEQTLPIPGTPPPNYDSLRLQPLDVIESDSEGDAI
Briefly: Sodium channel blocking activity: inhibition of short circuit current (ISC) in airway epithelial monolayers mounted in Ussing chambers. The note with it: for Fold Amiloride** (PSA 4022 = 100): relative potency for PSA 4022 = 100 using EC50 from PSA 4022 in same run; for EC50: mean ± spread. The format is cell-based, human, dog, sheep or rodent. The protocol:
In Vitro Measure of Sodium Channel Blocking Activity and Reversibility
One assay used to assess mechanism of action and/or potency of the compounds of the present invention involves the determination of lumenal drug inhibition of airway epithelial sodium currents measured under short circuit current (ISC) using airway epithelial monolayers mounted in Ussing chambers. Cells obtained from freshly excised human, dog, sheep or rodent airways are seeded onto porous 0.4 micron Snapwell™ Inserts (CoStar), cultured at air-liquid interface (ALI) conditions in hormonally defined media, and assayed for sodium transport activity (ISC) while bathed in Krebs Bicarbonate Ringer (KBR) in Using chambers. All test drug additions are to the lumenal bath with half-log dose addition protocols (from 1×10^−11 M to 3×10^−5 M), and the cumulative change in ISC (inhibition) recorded. All drugs are prepared in dimethyl sulfoxide as stock solutions at a concentration of 1×10^−2 M and stored at −20° C. Eight preparations are typically run in parallel; two preparations per run incorporate amiloride and/or benzamil as positive controls. After the maximal concentration (5×10^−5 M) is administered, the lumenal bath is exchanged three times with fresh drug-free KBR solution, and the resultant ISC measured after each wash for approximately 5 minutes in duration. Reversibility is defined as the percent return to the baseline value for sodium current after the third wash. All data from the voltage clamps are collected via a computer interface and analyzed off-line.
Dose-effect relationships for all compounds are considered and analyzed by the Prism 3.0 program. IC50 values, maximal effective concentrations, and reversibility are calculated and compared to amiloride and benzamil as positive controls.

[1] abbreviates: Selected Alaphatic Pyrazinoylguanidines (Formula II).
The mark [2] stands for this setting: Selected Cyclic Pyrazinoylguanidines (Formula III).

Regarding `CN(C)C(=O)COc1ccc(CCCCNC(=N)NC(=O)c2nc(Cl)c(N)nc2N)cc1` [compound 16313, 2-(4-{4-[N-(3,5-diamino-6-chloropyrazine-2-carbonyl)guanidino]-butyl}phenoxy)-N,N-dimethylacetamide hydrochloride], the “Fold Amiloride** (PSA 4022 = 100)” value (Capped Pyrazinoylguanidines) is listed as 41 ± 7.
Still for that read-out and setting: the value for `N=C(NCCCCc1ccc(OCC(=O)NCC(N)=O)cc1)NC(=O)c1nc(Cl)c(N)nc1N` [compound 16314, N-carbamoylmethyl-2-(4-{4-[N′-(3,5-diamino-6-chloropyrazine-2-carbonyl)guanidino]butyl}phenoxy)acetamide] was 41 ± 6; that for `N=C(NCCCCc1ccc(OCC(=O)Nc2ncc[nH]2)cc1)NC(=O)c1nc(Cl)c(N)nc1N` [compound 16437, 2-(4-{4-[N′-(3,5-diamino-6-chloropyrazine-2-carbonyl)guanidino]-butyl}phenoxy)-N-(1H-imidazol-2-yl)acetamide dihydrochloride] was 77 ± 53.
As for `N=C(NCCCCCCN)NC(=O)c1nc(Cl)c(N)nc1N` [compound 18706, N-(6-aminohexyl)-N′-(3,5-diamino-6-chloropyrazine-2-carbonyl)guanidine dihydrochloride], the “Fold Amiloride** (PSA 4022 = 100)” value (Alaphatic Pyrazinoylguanidines) came to 4 ± 1. Under setting [1], this compound displayed a 50% effective concentration (EC50) of 254 ± 118 nM.
In the same order, the values of `N=C(N)NCCCCCCCCCNC(=N)NC(=O)c1nc(Cl)c(N)nc1N` [compound 19006, N-{9-[N′-(3,5-diamino-6-chloropyrazine-2-carbonyl)guanidino]nonyl}guanidine dihydrochloride] are 11 ± 2 and 60 ± 15 nM.
For `N=C(N)NCCCCCCCNC(=N)NC(=O)c1nc(Cl)c(N)nc1N` [compound 19155, N-{7-[N′-(3,5-diamino-6-chloropyrazine-2-carbonyl)guanidino]heptyl}guanidine dihydrochloride], in that order: 8 ± 7 and 81 ± 45 nM.
`N=C(NCCCCCCCCCN)NC(=O)c1nc(Cl)c(N)nc1N` [compound 19335, N-(9-aminononyl)-N′-(3,5-diamino-6-chloropyrazine-2-carbonyl)-guanidine dihydrochloride]: the “Fold Amiloride** (PSA 4022 = 100)” value (Alaphatic Pyrazinoylguanidines) is on record as 19 ± 7.
In the case of `N=C(NCCCCCCCCN)NC(=O)c1nc(Cl)c(N)nc1N` [compound 19336, N-(8-aminooctyl)-N′-(3,5-diamino-6-chloropyrazine-2-carbonyl)-guanidine dihydrochloride], where the note is “Alaphatic Pyrazinoylguanidines”, the “Fold Amiloride** (PSA 4022 = 100)” value worked out at 12 ± 3. This compound registered a concentration for a half-maximal effect (EC50) under setting [1] of 76 ± 18 nM.
As for `N=C(NCCCCCCCCCCN)NC(=O)c1nc(Cl)c(N)nc1N` [compound 19487, N-(10-aminodecyl)-N′-(3,5-diamino-6-chloropyrazine-2-carbonyl)-guanidine dihydrochloride], the “Fold Amiloride** (PSA 4022 = 100)” value (Alaphatic Pyrazinoylguanidines) was 37 ± 1. The same compound returned a 50% effective concentration (EC50) under setting [1] of 25 ± 11 nM.
For `N=C(N)NCCCCCCCCNC(=N)NC(=O)c1nc(Cl)c(N)nc1N` [compound 19604, N-{8-[N′-(3,5-diamino-6-chloropyrazine-2-carbonyl)guanidino]octyl}-guanidine dihydrochloride], in that order: 63 ± 61 and 25 ± 27 nM.
In the same order, the values of `N=C(N)NCCCCCCCCCCNC(=N)NC(=O)c1nc(Cl)c(N)nc1N` [compound 23608, N-{10-[N′-(3,5-diamino-6-chloropyrazine-2-carbonyl)guanidino]-decyl}guanidine dihydrochloride] are 41 ± 29 and 17 ± 8 nM.
As for `N=C(NCCCCCCCCCCCCN)NC(=O)c1nc(Cl)c(N)nc1N` [compound 23609, N-(12-aminododecyl)-N′-(3,5-diamino-6-chloropyrazine-2-carbonyl)-guanidine dihydrochloride], the “Fold Amiloride** (PSA 4022 = 100)” value (Alaphatic Pyrazinoylguanidines) is 66 ± 36. The compound also gave an EC50 under setting [1] of 13 ± 7 nM.
With `N=C(NCCCCCCCCCCCN)NC(=O)c1nc(Cl)c(N)nc1N` [compound 23682, N-(11-aminoundecyl)-N′-(3,5-diamino-6-chloropyrazine-2-carbonyl)guanidine dihydrochloride], the “Fold Amiloride** (PSA 4022 = 100)” value (Alaphatic Pyrazinoylguanidines) is reported as 51 ± 15. The EC50 under setting [1] is 12 ± 3 nM.
As to `N=C(N)NCCCCCCCCCCCCNC(=N)NC(=O)c1nc(Cl)c(N)nc1N` [compound 23683, N-{12-[N′-(3,5-diamino-6-chloropyrazine-2-carbonyl)guanidino]dodecyl)guanidine dihydrochloride], the “Fold Amiloride** (PSA 4022 = 100)” value (Alaphatic Pyrazinoylguanidines) turned out to be 68 ± 48. Also, under setting [1], the half-maximal effective concentration (EC50) stood at 41 ± 68 nM.
For `N=C(N)NCCCCCCCCCCCNC(=N)NC(=O)c1nc(Cl)c(N)nc1N` [compound 23991, N-{11-[N′-(3,5-diamino-6-chloropyrazine-2-carbonyl)guanidino]-undecyl}guanidine dihydrochloride], in that order: 20 ± 12 and 64 ± 77 nM.
On to `N=C(NCCCCc1ccc(C[C@@H](N)CC(=O)O)cc1)NC(=O)c1nc(Cl)c(N)nc1N` [compound 24407], for which the “Fold Amiloride** (PSA 4022 = 100)” value (Capped Pyrazinoylguanidines) is 23 ± 4.
In the case of `N=C(NCCCCC1CCN(CCO)CC1)NC(=O)c1nc(Cl)c(N)nc1N` [compound 25193, N-(3,5-diamino-6-chloropyrazine-2-carbonyl)-N′-{4-[1-(2-hydroxyethyl)piperidin-4-yl]butyl}guanidine dihydrochloride], the “Fold Amiloride** (PSA 4022 = 100)” value (Cyclic Pyrazinoylguanidines) is recorded as 8 ± 3. Under setting [2], this compound returned an EC50 of 99 ± 14 nM.
For `N=C(NCCCCC1CCN(CCCO)CC1)NC(=O)c1nc(Cl)c(N)nc1N` [compound 25310, N-(3,5-Diamino-6-chloropyrazine-2-carbonyl)-N′-{4-[1-(3-hydroxypropyl)piperidin-4-yl]butyl}guanidine dihydrochloride], in that order: 5 ± 2 and 169 ± 47 nM.

For orientation: EC50 means the concentration needed to bring the measured effect to its halfway point. Read a low EC50 as higher potency in that assay.
